Results published in patent US20110288105A1, “ELTOPRAZINE FOR THE TREATMENT OF L-DOPA-INDUCED DYSKINESIA” (Merz Pharma GmbH & Co. KGaA, priority 2008, published 2011).
Entries after “also recorded” stand apart in the source; their conditions may differ.

Key:
[1] = test system: rodent models of depression; settings: in vivo; cited from earlier work
[2] = test system: 1-methyl-4-phenyl-1,2,3,6-tetrahydropyridine-treated primates; settings: monkey studies; Iravani et al. 2003; cited from earlier work
[3] = biological target: T1, 5-HT2a recombinant receptor (Homo sapiens, UniProt P28223); assay: Aequorin cell line functional assay, 5-HT2a; type: cell-based; settings: human recombinant cell lines; FIG. 1; relevant plasma concentration (<0.5 μM)
T1 construct: expressed in transfected cells
Experimental: (§1) Aequorin cell lines expressing the 5-HT2a, 5-HT2b and 5-HT2c non-edited (ne) recombinant receptors were used to evaluate the functional activity of eltoprazine. Aequorin cells grown 18 hours prior to the test in media without antibiotics were detached by gentle flushing with PBS-EDTA (5 mM EDTA), recovered by centrifugation and resuspended in “assay buffer” (DMEM/HAM's F12 with HEPES+0.1% BSA protease free). Cells were incubated at room temperature for at least 4 h with Coelenterazine h (Molecular Probes). The reference agonist used were 5-HT and a-methyl-5-HT. For agonist testing, 50 μl of cell suspension were injected on 50 μl of test compound or reference agonist plated in a 96-well plate. The resulting emission of light was recorded using the Hamamatsu Functional Drug Screening System 6000 (FDSS 6000).

dopamine D2 receptor = dopamine D2 receptor (Homo sapiens, UniProt P14416); assay: Affinity for dopamine D2 receptor; type: binding
[4] = biological target: T2, human serotonin HT1a receptor (Homo sapiens, UniProt P08908); assay: GTPγS assay, agonist testing, 5-HT1a; type: biochemical; settings: human recombinant cell lines; FIG. 1; relevant plasma concentration (<0.5 μM)
T2 construct: expressed in transfected cells; host or cells: CHO-K1
T2 sequence (P08908 1-422): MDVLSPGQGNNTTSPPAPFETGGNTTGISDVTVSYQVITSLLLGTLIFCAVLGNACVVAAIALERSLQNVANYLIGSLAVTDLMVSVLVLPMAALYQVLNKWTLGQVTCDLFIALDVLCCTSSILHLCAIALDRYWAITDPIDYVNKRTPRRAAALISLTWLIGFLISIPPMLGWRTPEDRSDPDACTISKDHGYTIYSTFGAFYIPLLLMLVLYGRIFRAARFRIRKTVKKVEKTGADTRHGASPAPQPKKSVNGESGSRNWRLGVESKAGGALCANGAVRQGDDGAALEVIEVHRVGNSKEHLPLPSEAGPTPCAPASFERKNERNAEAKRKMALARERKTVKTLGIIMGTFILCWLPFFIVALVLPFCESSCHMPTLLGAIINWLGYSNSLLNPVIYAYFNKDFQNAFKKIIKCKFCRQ
Experimental: (§2) Eltoprazine was tested for activity on the human serotonin HT1a and 5-HT1b receptors using a GTPγS assay. Recombinant membranes obtained from CHO-K1 cells expressing either the 5-HT1a or 5-HT1b receptors were mixed with GDP (volume:volume) and incubated for at least 15 min on ice. In parallel, GTPγ[35S] was mixed with the beads (volume:volume) just before starting the reaction. The following reagents were successively added in the wells of an Optiplate (Perkin Elmer): 50 μl of test compound, 20 μl of the membranes:GDP mix, 10 μl of assay buffer (for agonist testing) and 20 μl of the GTPγ[35S]:beads mix. The plates were covered with a top seal, shaken on an orbital shaker for 2 min, and then incubated for 1 hour at room temperature. Then the plates were centrifuged for 10 min at 2000 rpm, incubated at room temperature 1 hour and counted for 1 min/well with a PerkinElmer TopCount reader.

[5] = test system: unilaterally 6-OHDA-lesioned rats; assay: L-DOPA-induced dyskinesia (AIM scores) in 6-OHDA-lesioned rat model of Parkinson's disease; type: in vivo; settings: eltoprazine hydrochloride 0.08, 0.3, 1.25 and 5 mg/kg s.c.; after 21 days of L-DOPA; FIG. 2
Experimental: (§3) Male Sprague Dawley rats (Elevage Janvier, Le Genest Saint Isle, France) weighing between 220 and 250 g at the beginning of the study are used in these experiments. They are housed under a 12-hr light/dark cycle with free access to standard pelleted food and tap water. Animal treatment and experimental procedures are approved by local ethical committees (Regierungspräsidium Darmstadt; Germany).
(§4) Dopamine-denervating lesions are performed on rats anaesthetized with a 5:1 mixture of ketamine and xylazine (1 ml/kg, i.p.). […] The animals' turning behaviour is recorded in an automated rotometer (TSE Rotameter System, TSE—Systems GmbH, Bad Homburg, Germany) over a 90-min period after the intraperitoneal (i.p.) injection of 2.5 mg/kg dexamphetamine sulphate dissolved in saline. […]
In order to evaluate a the severity of LID, AIMs are recorded every second day as described by Cenci et al. (1998). […]
Eur J Neurosci 1998 10:2694-2706. […] Each rat is scored on a severity scale from 0 to 4 based on its frequency and persistence (1=occasional; 2=frequent; 3=continuous but interrupted by sensory distraction; 4=continuous, severe and not interrupted by sensory distraction). […]

[6] = test system: unilaterally 6-OHDA-lesioned rats; assay: Turning behaviour induced by high dose of L-DOPA in 6-OHDA-lesioned rats; type: in vivo, rat; settings: 0.3, 1.25 and 5 mg/kg, 30 min before test, FIG. 3
Experimental: as §3, §4
In order to evaluate the effect of eltoprazine on parkinsonian symptoms and its interaction with L-DOPA, rotational behaviour is evaluated. The numbers of ipsilateral and contralateral turns are recorded in an automated rotometer (TSE Rotameter System, TSE—Systems GmbH, Bad Homburg, Germany) over a period of 180 min. […]

human 5-HT1b receptor = biological target: T3, human 5-HT1b receptor (Homo sapiens, UniProt P28222); assay: GTPγS assay, agonist testing, 5-HT1b; type: biochemical; settings: human recombinant cell lines; FIG. 1; relevant plasma concentration (<0.5 μM)
T3 construct: expressed in transfected cells; host or cells: CHO-K1
Experimental: as §2

[7] = biological target: T4, 5-HT2c non-edited (ne) recombinant receptor (Homo sapiens, UniProt P28335); assay: Aequorin cell line functional assay, 5-HT2c non-edited; type: cell-based; settings: human recombinant cell lines; FIG. 1; relevant plasma concentration (<0.5 μM)
T4 construct: expressed in transfected cells
T4 sequence (P28335 33-458): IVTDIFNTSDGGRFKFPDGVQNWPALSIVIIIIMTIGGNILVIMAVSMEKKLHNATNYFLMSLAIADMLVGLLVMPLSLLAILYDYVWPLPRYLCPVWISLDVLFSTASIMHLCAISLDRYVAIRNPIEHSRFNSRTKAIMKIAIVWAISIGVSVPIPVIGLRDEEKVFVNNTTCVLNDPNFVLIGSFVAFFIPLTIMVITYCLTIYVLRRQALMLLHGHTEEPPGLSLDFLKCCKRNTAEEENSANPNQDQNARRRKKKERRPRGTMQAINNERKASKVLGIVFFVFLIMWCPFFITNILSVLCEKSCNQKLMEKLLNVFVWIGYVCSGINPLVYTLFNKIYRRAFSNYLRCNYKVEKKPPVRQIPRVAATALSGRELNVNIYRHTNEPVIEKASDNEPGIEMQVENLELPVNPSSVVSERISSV
Experimental: as §1

Chain of dopamine D2 receptor (P14416 whole entry, species assumed): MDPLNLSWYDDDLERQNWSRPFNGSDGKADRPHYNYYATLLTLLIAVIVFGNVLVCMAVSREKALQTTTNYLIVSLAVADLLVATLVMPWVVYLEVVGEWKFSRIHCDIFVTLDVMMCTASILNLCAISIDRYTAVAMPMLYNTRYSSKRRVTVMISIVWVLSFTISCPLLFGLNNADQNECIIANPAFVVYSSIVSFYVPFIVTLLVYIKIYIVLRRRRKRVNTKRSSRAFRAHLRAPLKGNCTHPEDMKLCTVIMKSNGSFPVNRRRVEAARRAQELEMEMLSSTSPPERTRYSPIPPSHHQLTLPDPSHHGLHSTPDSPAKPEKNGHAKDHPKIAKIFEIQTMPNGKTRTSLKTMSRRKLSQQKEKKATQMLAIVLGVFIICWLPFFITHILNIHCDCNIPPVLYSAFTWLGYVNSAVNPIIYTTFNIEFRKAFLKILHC
T1 sequence (P28223 whole entry): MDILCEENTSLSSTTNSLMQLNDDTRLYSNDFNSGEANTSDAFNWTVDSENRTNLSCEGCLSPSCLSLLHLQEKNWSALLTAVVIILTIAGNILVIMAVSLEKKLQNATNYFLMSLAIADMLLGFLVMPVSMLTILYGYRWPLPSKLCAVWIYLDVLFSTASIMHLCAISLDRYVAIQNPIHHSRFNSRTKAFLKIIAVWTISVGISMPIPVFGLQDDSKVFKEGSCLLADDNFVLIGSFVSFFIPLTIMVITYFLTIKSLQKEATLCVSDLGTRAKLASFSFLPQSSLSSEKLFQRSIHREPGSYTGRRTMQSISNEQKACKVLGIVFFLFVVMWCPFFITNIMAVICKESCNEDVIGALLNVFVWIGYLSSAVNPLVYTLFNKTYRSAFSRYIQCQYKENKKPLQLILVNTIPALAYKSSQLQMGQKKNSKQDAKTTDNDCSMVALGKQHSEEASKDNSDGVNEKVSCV
T3 sequence (P28222 whole entry): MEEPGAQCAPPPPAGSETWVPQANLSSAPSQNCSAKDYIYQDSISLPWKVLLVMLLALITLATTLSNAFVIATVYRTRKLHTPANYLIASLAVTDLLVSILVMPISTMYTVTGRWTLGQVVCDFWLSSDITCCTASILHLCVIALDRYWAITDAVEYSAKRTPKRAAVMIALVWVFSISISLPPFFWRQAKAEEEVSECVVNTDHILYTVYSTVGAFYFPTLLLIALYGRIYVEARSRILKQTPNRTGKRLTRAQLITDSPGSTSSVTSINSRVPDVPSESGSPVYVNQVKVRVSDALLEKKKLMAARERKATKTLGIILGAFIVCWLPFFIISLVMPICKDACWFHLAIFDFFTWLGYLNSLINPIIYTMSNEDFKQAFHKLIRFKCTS

SMILES: COc1ccc2c(c1O[C@H]1CCNC1)CCC2 [Org 37684]
- effect in rodent models of depression [1]: positive effects

SMILES: C[C@H](N)Cn1ccc2cc(F)c(Cl)cc21 [Ro 60-0175]
- effect in rodent models of depression [1]: positive effects

SMILES: COc1ccc2[nH]cc(C3=CCNCC3)c2c1 [Ru-24969]
- effect on motor symptoms / side effects [2]: worsening of motor symptoms and/or development of side effects

SMILES: c1cc2c3c(c1)[C@H]1CCC[C@H]1N3CCNC2 [WAY-163909]
- effect in rodent models of depression [1]: positive effects

SMILES: CCc1cc2c(ccc3cnn(C[C@H](C)N)c32)o1 [YM348]
- effect in rodent models of depression [1]: positive effects

SMILES: c1cc2c(c(N3CCNCC3)c1)OCCO2 [eltoprazine, 1-(2,3-dihydro-1,4-benzodioxin-5-yl)piperazine]
- functional action on 5-HT2a receptor [3]: partial agonistic action
- affinity for the dopamine D2 receptor (dopamine D2 receptor): devoid of significant affinity
- functional action on 5-HT1a receptor [4]: weak agonistic action
- effect on AIM scores (L-DOPA-induced dyskinesia) [5]: significantly reverses, in a dose-dependent manner
- interference with the antiparkinsonian effect of L-DOPA (turning behaviour) [6]: does not interfere with the antiparkinsonian effect of L-DOPA; also recorded: does not interfere with the anti-parkinsonian effect of L-DOPA
- functional action on 5-HT1b receptor (human 5-HT1b receptor): partial agonistic action
- functional action on 5-HT2c receptor [7]: agonist

SMILES: Clc1cccc(N2CCNCC2)c1 [mCPP]
- effect in rodent models of depression [1]: positive effects
